Earlier results, collected in patent US20070111953A1, “Compositions to improve the bioavailability of polymethoxyflavones and tocotrienols for treatment of cardiovascular disease” (KGK Synergize, Inc., priority 2005, published 2007).

Tested on: acetylated LDL metabolism

## COc1ccc(-c2cc(=O)c3c(OC)c(OC)c(OC)c(OC)c3o2)cc1OC [nobiletin]
  Inhibition of acetylated LDL metabolism: 50-72%
